This is an account of results in publication PMC12389006, “In Vitro and In Vivo Evaluation of Alectinib-Loaded Dendrimer Nanoparticles as a Drug Delivery System for Non-Small Cell Lung Carcinoma” (Pharmaceutics, 2025).

One series deals with NCI-H2228 (lung cancer). Particulars: cited from earlier work.
On the set-up of series [1]: method as in PMID 36015320. As to conditions: cited from earlier work.
In series [2] the test system is resistance-induced overexpressed TGF-α HGF cells. Further details: method as in PMID 31857951. As to conditions: cited from earlier work.
For series [3] the following is noted: pH 1.2 and 2.5; cited from earlier work.
A further series relates to KARPAS 299. As to conditions: cited from earlier work.
Series [4] has as its system A549 lung cancer cell line. In words: MTT cytotoxicity assay. The series is classed as cell-based. As to conditions: Homo sapiens, A549, 72 h. Here is the method: The A549 cell line, composed of human alveolar basal epithelial adenocarcinoma cells, was used for the in vitro evaluation. Cells were obtained from ATCC through the Faculty of Pharmacy […] University. To maintain the A549 lung cancer cell line, Roswell Park Memorial Institute (RPMI) was employed. The medium was supplemented with 2 mL of L-glutamine, 50 mL of fetal bovine serum (FBS), and 5 mL of penicillin-streptomycin. The frozen A549 cell vials, stored in liquid nitrogen at approximately -196 °C, were quickly thawed at 37 °C in a water bath. The contents were then diluted with 10 mL of pre-warmed media and then centrifuged at 1500 rpm for 10 min. After discarding the supernatant, the tube was gently agitated to disperse the cells, and fresh medium (15 mL) was added. […] Their confluency level was maintained within the ideal range of 80-90%. To assess cell viability, a 1:1 mixture of 50 μL of Trypan blue stain and 50 μL of cell solution was prepared in an Eppendorf tube. Then, 5 × 10^3 cells were inoculated into individual wells of 96-well microplates using 100 μL of medium. […] Negative control wells received 0.1% DMSO, while blank wells were filled with RPMI medium without cells. […] The absorbance of the formazan solution in each well was promptly quantified at 590 nm utilizing a 96-well plate reader manufactured by Biotech, and the IC50 values were calculated according to Equation (2).

Series [5] relates to A549 cells. In words: Scratch-wound assay for cell migration. The series is classed as cell-based, human. As to conditions: A549, 72 h. As to the method: After the cells reached full confluence and formed a uniform monolayer, a scratch approximately 1 mm wide was created across the cell layer using a sterile 200 μL micropipette tip. The wells were then gently washed with phosphate-buffered saline (PBS) to remove cellular debris. […] To evaluate wound closure, images of the scratch area were captured at the start of the experiment (0 h) and after 72 h of treatment. Image analysis was performed using ImageJ® software (version 1.4.3.67, Symmetry Software) to measure the wound area and assess cell migration quantitatively

Details of series [6]: method as in PMID 36015320. As to conditions: cited from earlier work. The source holds these as a separate data set.
Series [7] concerns H460 large lung cancer cells. The series is classed as in vivo. Particulars: H460 xenograft mice, 20 mg/kg.
Procedure: This study involved 24 male BALC mice, aged 5 weeks and weighing 20 ± 2 g, housed under controlled environmental conditions (temperature: 25.2 °C, humidity: 60 ± 5%, 12 h light–dark cycle) with ad libitum access to standard rodent chow and autoclaved water. […] Human lung large-cell carcinoma (H460) cells were cultured in RPMI 1640 medium, prepared through trypsinization and centrifugation, and underwent viability testing with Trypan blue exclusion, then were suspended in ECM Matrigel®. After 21 days of immunosuppression with 5 mg/kg dexamethasone administered intraperitoneally each mouse was subcutaneously injected in the right flank with 2.5 × 10^6 viable H460 cells. Tumor growth was monitored for 14 days using caliper measurements.
To establish an immunosuppressed xenograft model, dexamethasone (5 mg/kg) was administered to all mice for 21 days to suppress their immune response (Figure S8). Following immunosuppression, 2.5 × 10^6 H460 large lung cancer cells were subcutaneously injected into the mice, and tumor growth was monitored every day.
Series [8] is described as follows: Pharmacokinetic study in rats, LC-MS/MS of plasma. The format is in vivo, Wistar rats. Particulars: rat, 20 mg/kg oral; for AUC0-t: 20 mg/kg. As to the method:
Quantification and identification of Alectinib were performed using liquid chromatography coupled with mass spectrometry (LC/MS), employing rosuvastatin as the internal standard (IS). […] Detection was carried out with an API-3000 triple quadrupole mass spectrometer (LCMS-2010A, Shimadzu, Japan) featuring an electrospray ionization (ESI) source operated in positive ion mode. […] Detection was achieved using multiple reaction monitoring (MRM) for specific m/z transitions. […] Prior to the experiment, the animals were fasted overnight with free access to water and were marked on the tail for individual identification. The rats were randomly divided into two groups. […] Blood samples were collected from the tail after warming for 30 s using a hot pad to facilitate sampling. […] Sample preparation was carried out using the liquid–liquid extraction (LLE) technique. Frozen plasma samples were thawed at room temperature, vortexed to ensure uniform mixing, and combined with 500 µL acetonitrile (ACN) as diluent, 300 µL plasma, and 50 µL rosuvastatin as the internal standard. The mixture was vortexed for 2 min, centrifuged at 4000 rpm for 15 min, and 200 µL of the supernatant was transferred into LC-MS insert vials. Subsequently, 20 µL of the processed sample was analyzed using LC-MS/MS for quantification and pharmacokinetic evaluation.

Series [9] relates to A549 cells. On the set-up: method as in Ata et al. As to conditions: ref Ata et al.; cited from earlier work.
Series [10] in a line: In vitro drug release, dialysis method in PBS. The format is physicochemical. Particulars: pH 6.8 PBS, 1.5% SLS, 37 °C. Here is the method:
In vitro drug release studies were performed using the dialysis method. A drug release study was conducted in vitro to measure the amount of drug released from the complex. […] The dissolution study was conducted using the USP II apparatus (paddle) under the following conditions: a stirring speed of 100 rpm, a temperature of 37.0 ± 0.5 °C, and volume of release media of 200 mL. The NP samples were placed in a plastic tube sealed with a dialysis membrane with a molecular weight cut-off (MWCO) of 14,000 Da, which was previously soaked in either buffer for 24 h. […] At predetermined time intervals, 1 mL aliquots were withdrawn and promptly replaced with fresh media. The collected samples were filtered by a 0.22 µm filter membrane and were subsequently injected into the HPLC system at a wavelength of 340 nm.

The next series deals with nB1 (neuroblastoma). As to conditions: cited from earlier work.

Like-named read-outs stand apart in the source and are kept apart here.

For the molecule `CCc1cc2c(cc1N1CCC(N3CCOCC3)CC1)C(C)(C)c1[nH]c3cc(C#N)ccc3c1C2=O.Cl` [Alectinib, 9-ethyl-6,6-dimethyl-8-[4-(morpholine-4-yl)piperidin-1-yl]-11-oxo-6,11-dihydro-5H-benzo[b]carbazole-3-carbonitrile hydrochloride], the IC50 was 53 nM in the series on NCI-H2228 (lung cancer); 38.2 nM in series [2]; 3 nM in the series on KARPAS 299; 4190 nM in [4]; 9.63 µg/mL in the series on A549 cells [9]; 4.5 nM in the series on nB1 (neuroblastoma). Further, the absolute bioavailability in series [1] was 37%. For the same molecule, the “stability at low pH” value in [3] is given as “degradation of Alectinib at low pH”. Besides, in the series on A549 cells [5], the “scratch assay outcome in words” value is listed as “completely eradicated the cells”. For the same molecule, the permeability in series [6] is 250 ×10⁻⁶ cm/s. In addition, the “tumor outcome in words after 17 days of treatment” value in series [7] is “minimal amount of residual tumor tissue”. In addition, the “tumor regression / reduction after 17 days of treatment” value in [7] is 75%. The molecule further gave an AUC(0-inf) in series [8] (male, Wistar, plasma) of 11800 ng·h/mL. The half-life in series [8] (male, Wistar, plasma) was 15.4 ± 1.6 h. For the same molecule, in [8] (male, Wistar, plasma), the k el is 1.25e-05 s⁻¹. For the same molecule, the AUC0-t is 9840 ng·h/mL in series [8] (male, Wistar, plasma, po, read-out: AUC0-t) and 9842.03 ± 3986 ng·h/mL in series [8] (listed as Free Alectinib). This molecule gave a C-max in series [8] of 313.83 ± 150.83 ng/mL. In series [8], this molecule yielded a T-max of 9.33 ± 1.1 h. Besides, in series [8] (assumption of linear absorption), the “absorption rate constant (Ka)” value amounted to 0.43 h⁻¹. Further, the “Alectinib released over 48 h” value in [10] is recorded as 11.1% ± 0.11.
